SMILES strings stand for the structures. Read-outs that look alike come from different tables or passages of the source.

Results on three compounds are retold here after paper PMC4738305, “Metabolism and Disposition of Aditoprim in Swine, Broilers, Carp and Rats” (Scientific Reports, 2016).

Series [1] can be described thus: Concentration and elimination of ADP and its metabolites in liver, kidney, muscle, fat/skin after oral ^3H-ADP for 7 d. In kind it is in vivo, broilers. The note with it: for concentration at 0.25 d / concentration at 1 d / concentration at 3 d / concentration at 7 d / concentration at 14 d: oral; for half-life: po. Here is the method: (§1) A total of 36 animals from each species (swine n = 24) were randomly assigned to six equal treatment groups and administered a single daily dose of ^3 H-ADP at 5 mg/kg b. w. (0.1 Ci/g) through oral gavage for 7 consecutive days. All the animals were housed on the basis of their group in the cages or aquaria throughout the whole study period. A group of animals was slaughtered through exsanguination under diethyl ether inhalation of anesthesia in the period of 6 h, 1, 3, 7, 14, and 21 d after the administration. The blood samples were immediately collected into the heparinized tubes and was centrifuged at 1920 × g at 4 °C for 10 min to obtain the plasma. The tissues from the heart, liver, spleen, lung, kidney, craw (broilers), stomach, intestine, fat, skin, muscle, thymus, pancreas, bile, bladder, hair (scale for carp), genital gland, adrenal glands, swim bladder (carp), brain, lymph, and bursa (broilers) were carefully excised and collected. The tissues were thoroughly rinsed with the deionized water to remove the residuary blood, blotted to dryness, and finally to perform the homogenization. In order to avoid cross-contamination the dissecting instruments were washed during the tissue procurements. The blank tissues were collected in order to provide control matrices. The total radioactivity levels in each sample were determined through LSC. The samples extracted from the plasma, bile, and tissues of the liver, kidney, muscle, and fat/skin were analyzed through LC/MS-IT-TOF and v. ARC radiometric detection for metabolite profiling. The blank samples were used as control to determine the background radioactivity or the endogenous nondrug-related ions observed within respective matrices or their extracts.
The feces and tissues (2 g) were diluted with a mixture of methanol and chloroform (1:3, v:v; 2 mL/g homogenate). This procedure was carried out in a fume hood for the safety aspects. The pH value was adjusted to 9.0 with NH4OH. The mixture was vortexed and sonicated for 5 min and 10 min, respectively, and finally the samples were centrifuged at 7690 × g for 10 min. The supernatant was aspirated and then transferred into a new centrifuge tube. The obtained pellet was again subjected to the same process of vortex, ultrasonication, extraction, and centrifugation. The combined supernatant was concentrated under a stream of nitrogen in a water bath at 40 °C. The residue was reconstituted with 0.3 mL of methanol–water (1:9, v:v) before the injection into the LC-v. ARC/MS-IT-TOF system for analysis.
ADP and its metabolites in the prepared samples were determined with a v. ARC radiometric detector and a hybrid IT/TOF mass spectrometer connected to the HPLC system (Shimadzu Corp., Kyoto, Japan). The LC system was equipped with a solvent delivery pump (LC-20AD), an auto-sampler (SIL-20AC), a degasser (DGU-20 A 3), a photodiode array detector (SPD-M20A), a communication base module (CBM-20 A), and a column oven (CTO-20AC). The chromatographic separation was achieved by using an Agilent extend-C18 column (2.1 mm × 150 mm, 5 μm) with a gradient mobile phase of A (0.01% ammonia and 5 mM ammonium acetate in water) and B (methanol) at a flow rate of 0.2 mL/min. The column temperature was maintained at 35 °C. Various HPLC methods were performed because of the large number of different metabolites to be analyzed. For the porcine sample, method 1 started at 5% B and increased to 20% B over 35 min, then to 55% B by 60 min, followed by re-equilibration for another 10 min. For the remaining samples, method 2 started at 10% B and increased to 60% B over 30 min, subsequently was maintained at 60% B for an additional 10 min, and then changed to 90% B over 2 min and maintained for 2 min. Afterwards, a re-equilibration step (decreased to 10% B over 1 min and maintained at 10% B for additional 9 min) was followed. For each matrix, more than 98% of the radioactivity injected into the column was eluted during the running time of the gradient program. […]

Series [2] is described as follows: Metabolite profiling of ADP in excreta, plasma and bile (LC-v.ARC/MS-IT-TOF). Format: in vivo, carp. The note with it: for percentage of the individual metabolite compared with the total concentration of ADP-related: within 6 h after dosing; for Average percentage of ADP and its metabolites in total dose: Carp, Excreta, single oral 5 mg/kg b.w. ^3H-ADP. Here is the method:
Animals (4 swine, 6 broilers, 6 carp, and 3 male and 3 female rats) were housed individually in clean, suspended wire-mesh metabolism cages, designed to separate the urine from the feces (carp were raised in individual aquaria). Each animal was weighed and assigned with a permanent identification number. A single dose of ^3 H-ADP (5 mg/kg b. w., 0.1 Ci/g) was administered via the oral gavage. Excreta were collected on ice at the pre-administration, in the period of 6, 12, and 24 h on day 1 d, and afterwards, intermittently in the period of 24 h up to 14 d. The piscine excreta were collected by changing and collecting raised water. The total volume or weight of each sample was measured and homogenized. The total radioactivity levels were determined through LSC for the recovery calculations. After the preparation, the samples were analyzed through LC/MS-IT-TOF with v. ARC radiometric detection (XenoBioticLaboratories, Inc.) for metabolite profiling. The pretreatment samples were used as controls to determine the background radioactivity or the endogenous nondrug-related ions observed within respective matrices or their extracts.
as §1
For metabolite profiling, the urine and feces samples from each animals were pooled proportionally to the excreted amount in each sampling period from 0 to 6 h, 6 h to 1 d, 1 to 3 d, 3 to 7 d, and 7 to 14 d post-dose, respectively. All samples were fully homogenized before the process. The pre-dose and blank samples served as the controls for determining the background radioactivity or the endogenous, nondrug-related ions observed within respective matrices or their extracts.
The urine samples (plasma, bile and raised water for carp) was subjected to solid-phase extraction with an Oasis MCX cartridge (3 mL, […]; Waters, Milford, MA, USA) for metabolite purification and enrichment. The pH value was adjusted to 2.8–3.2 by adding 1 M hydrochloric acid (HCl), and 2 mL of the sample was transferred into MCX cartridge, which was preconditioned with 3 mL of methanol and 3 mL of 0.1 mol/L HCl solution. The cartridge was washed with 3 mL of 0.1 mol/L HCl solution and was eluted with 5 mL of NH4OH/methanol (4:96, v:v). The effluent was concentrated to dryness under a stream of nitrogen at 40 °C. […]

Where [3] appears, read: broiler chicken, kidney, 5 mg/kg b.w.
Where [4] appears, read: broiler chicken, muscle, 5 mg/kg b.w.
[5] abbreviates: broilers, muscle, 5 mg/kg b. w.
[6] abbreviates: broiler kidney, after 5 mg/kg b. w. for 7 days, read-out: t1/2 of the individual compound (converted).
Where [7] appears, read: broiler liver, after 5 mg/kg b. w. for 7 days, read-out: t1/2 of the individual compound (converted).
[8] abbreviates: tissues (liver, kidney, muscle, fat/skin), 5 mg/kg, broilers tissues, read-out: t1/2 of the individual compound, range over tissues.

Take `COc1cc(Cc2cnc(N)nc2N)cc(OC)c1N(C)C` [A0, 2,4-Diamino-5-[4-(dimethylamino)-3,5-dimethoxybenzyl] pyrimidine]: the concentration at 0.25 d in series [1] (setting [3]) is 15400 ± 2120 ng/g; in series [1] (setting [4]), 530 ± 220 ng/g; in series [1] (broilers, fat, 5 mg/kg b. w.) it was 780 ± 240 ng/g; in series [1] (broilers, liver, 5 mg/kg b. w.) it was 8040 ± 1400 ng/g. The concentration at 1 d in series [1] (setting [3]) came to 7240 ± 1020 ng/g; in series [1] (broilers, fat, 5 mg/kg b. w.), 180 ± 60 ng/g; in series [1] (broilers, liver, 5 mg/kg b. w.) it was 1860 ± 580 ng/g; in series [1] (setting [5]), 330 ± 100 ng/g. In addition, the concentration at 3 d in series [1] (setting [3]) was determined as 1150 ± 440 ng/g; in series [1] (broilers, fat, 5 mg/kg b. w.), 140 ± 20 ng/g; in series [1] (broilers, liver, 5 mg/kg b. w.), 1150 ± 440 ng/g; in series [1] (setting [5]), 220 ± 30 ng/g. Also, the concentration at 7 d in series [1] (setting [3]) stood at 170 ± 20 ng/g; in series [1] (broilers, fat, 5 mg/kg b. w.) it was 60 ± 10 ng/g; in series [1] (broilers, liver, 5 mg/kg b. w.), 580 ± 80 ng/g; in series [1] (setting [5]), 30 ng/g. Further, the concentration at 14 d in series [1] (setting [3]) came to 40 ± 10 ng/g; in series [1] (broilers, liver, 5 mg/kg b. w.) it was 130 ± 50 ng/g. Besides, in series [1] (broilers liver, kidney, muscle, fat, over the sampling times), the “share of the sample radioactivity in the detected tissues” value is “more than 42%”. In addition, the half-life is 71.5 h in series [1] (broiler fat, after 5 mg/kg b. w. for 7 days, read-out: t1/2 of the individual compound (converted)); 55.4 h in series [1] (setting [6]); 81.6 h in series [1] (setting [7]); 40.1 h in series [1] (broiler muscle, after 5 mg/kg b. w. for 7 days, read-out: t1/2 of the individual compound (converted)); 40.1 to 81.6 h in series [1] (setting [8]). For the same compound, the figures for the “percentage of the individual metabolite compared with the total concentration of ADP-related” value (“percentage of the individual metabolite” below) in series [2] (Carp Bile), in series [2] (Carp Extra (excreta)) and in series [2] (Carp Plasma) were 64.7%, 87.5% and 61.7%, respectively. Besides, in series [2], the “Average percentage of ADP and its metabolites in total dose” value (“Average percentage” for short) is reported as 82.4%. The “level of intact ADP” value in series [2] (carp, single oral 5 mg/kg b. w. (Table S5)) is on record as 82.4 % of the oral dose.

For `CNc1c(OC)cc(Cc2cnc(N)nc2N)cc1OC` [A1, N-monodesmethyl-ADP], the concentration at 0.25 d in series [1] (setting [3]) turned out to be 6060 ± 970 ng/g; in series [1] (setting [4]) it was 200 ± 80 ng/g; in series [1] (broilers, fat, 5 mg/kg b. w.), 300 ± 100 ng/g; in series [1] (broilers, liver, 5 mg/kg b. w.), 3090 ± 680 ng/g. Further, the concentration at 1 d stood at 2920 ± 530 ng/g in series [1] (setting [3]); 60 ± 20 ng/g in series [1] (broilers, fat, 5 mg/kg b. w.); 740 ± 120 ng/g in series [1] (broilers, liver, 5 mg/kg b. w.); 90 ± 20 ng/g in series [1] (setting [5]). Moreover, the concentration at 3 d was found to be 370 ± 100 ng/g in series [1] (setting [3]) and 370 ± 100 ng/g in series [1] (broilers, liver, 5 mg/kg b. w.). In addition, the half-life in series [1] (setting [6]) was 16.3 h; in series [1] (setting [7]), 25.2 h; in series [1] (setting [8]), 16.3 to 25.2 h. For the same compound, the figures for the “percentage of the individual metabolite” value in series [2] (Carp Bile), in series [2] (Carp Extra (excreta)) and in series [2] (Carp Plasma) were 25.5%, 9.9% and 23.9%, respectively. The “Average percentage” value in series [2] amounted to 8.9%.

As for `COc1cc(Cc2cnc(N)nc2N)cc(OC)c1N` [A2, N-didesmethyl-ADP], the concentration at 0.25 d in series [1] (setting [3]) was determined as 1200 ± 80 ng/g; in series [1] (setting [4]), 60 ± 20 ng/g; in series [1] (broilers, fat, 5 mg/kg b. w.), 30 ± 10 ng/g; in series [1] (broilers, liver, 5 mg/kg b. w.), 380 ± 50 ng/g. Further, the concentration at 1 d in series [1] (setting [3]) was determined as 550 ± 140 ng/g; in series [1] (broilers, liver, 5 mg/kg b. w.) it was 190 ± 50 ng/g; in series [1] (setting [5]), 10 ng/g. The “percentage of the individual metabolite” value in series [2] (Carp Bile) was found to be 9.8%; in series [2] (Carp Extra (excreta)), 2.5%; in series [2] (Carp Plasma), 14.4%. The “Average percentage” value in series [2] is listed as 2.9%.
